# Patent US12123028B2, “Viral inactivation methods for continuous manufacturing of antibodies” (Bayer HealthCare LLC, priority 2018, dated 2024)
# Entries after “also recorded” stand apart in the source; their conditions may differ.
# Key:
# aquatic environment = conditions: cited from earlier work
# X-MuLV = test: Dual X-MuLV inactivation by low pH and detergent in mAb protein A eluate, remaining infectivity by TCID50 assay on PG-4 cells; assay type: cell-based, Xenotropic Murine Leukemia Virus; conditions: for LRF ± 95% CL: 16° C.
# Protocol: […] The pH adjusted eluates were then filtered by a 0.22 um filter. Various volumes of 5% detergent stock solution were then added to the filtered protein A eluates. The low pH protein A eluates containing Mega-10, Tween 80 or Tween 20 were pre-incubated at a 16° C. water bath prior to spiking with X-MuLV at a 1:20 ratio. After a thorough mixing, an aliquot of sample was removed immediately and neutralized with 1 M Tris buffer to stop low pH viral inactivation, then immediately quenched with diluent at 1:12 for Mega-10 or at 1:100 for Tween 20 and Tween 80 to stop viral inactivation by the detergent. The collected sample was designated as a time-zero reference. The remaining spiked eluate was returned to the water bath and the samples were collected at indicated times to evaluate the viral inactivation kinetics. The remaining X-MuLV infectivity in the samples post-inactivation treatment was determined by a TCID50 assay that is an endpoint dilution assay to quantify the amount of virus required to produce a cytopathic effect in 50% of inoculated tissue culture cells. Virus titers were estimated using the Spearman-Karber method and reported as TCID50/mL with a calculated 95% confidence interval (CI). Briefly, a sufficient number of 96-well plates with PG-4 (feline S^+L^−, ATCC#CRL-2032) cells were prepared the day before starting the viral inactivation experiments and incubated overnight in a 37° C. humidified CO2 incubator. A set of ten 3.2 fold dilution of the diluted positive control (1:100) and viral inactivated samples were prepared in a dilution block. Each set of the 11 serial dilutions of the samples were inoculated correspondingly onto wells (100 μL per well) of the first 11 columns in a 96-well plate that had been pre-seeded with PG-4 cells. The 12th column in the same plate was inoculated with the corresponding diluent to serve as non-virus negative control. The positive control was prepared by spiking the filtered neutralized protein A eluate with X-MuLV at a 1:20 ratio. The inoculated plates were then incubated in a 37° C. humidified CO2 incubator for approximate 2 hours. A volume of 100 uL of 2× assay medium (92% McCoy's 5A medium, 4% FBS, 2% Penicillin/Streptomycin, 2% L-Glutamine) was added to each well of the plates at the end of incubation. The plates were then returned to the same incubator, and continued incubation for 6 days. Each well of the plates were scored under a microscope for the presence of cytopathic effect (CPE) and the results were recorded in a scoring sheet. Virus titers were then estimated using the Spearman-Karber method and reported as TCID50/mL with a calculated 95% confidence interval (CI).
smiles,measurement,setting,value
"CCCCCCCCCC(=O)N(C)C[C@H](O)[C@@H](O)[C@H](O)[C@H](O)CO [Mega-10, N-Methylglucamide]",toxicity to the aquatic environment,aquatic environment,without toxicity to the aquatic environment; also recorded: no toxicity to the aquatic environment
same,LRF ± 95% CL,"X-MuLV; dual treatment pH 3.91 + 0.10% Mega 10, mAb1 protein A eluate, 0 minutes",3.74 ± 0.33
same,LRF ± 95% CL,"X-MuLV; dual treatment pH 3.91 + 0.10% Mega 10, mAb1 protein A eluate, 2.5 minutes",≥ 5.40±0.21
same,LRF ± 95% CL,"X-MuLV; dual treatment pH 3.91 + 0.10% Mega 10, mAb1 protein A eluate, 2.5 minutes, listed as Mega 10",≥5.40 ± 0.21
same,LRF ± 95% CL,"X-MuLV; dual treatment pH 3.91 + 0.10% Mega 10, mAb1 protein A eluate, 5 minutes",≥5.40 ± 0.21
same,LRF ± 95% CL,"X-MuLV; dual treatment pH 3.91 + 0.10% Mega 10, mAb1 protein A eluate, 10 minutes",≥5.40 ± 0.21
same,LRF ± 95% CL,"X-MuLV; dual treatment pH 3.91 + 0.10% Mega 10, mAb1 protein A eluate, 30 minutes",≥5.40 ± 0.21
same,LRF ± 95% CL,"X-MuLV; dual treatment pH 4.05 + 0.15% Mega 10, mAb2 protein A eluate, 0 minutes",1.62 ± 0.27
same,LRF ± 95% CL,"X-MuLV; dual treatment pH 4.05 + 0.15% Mega 10, mAb2 protein A eluate, 2.5 minutes",3.96 ± 0.31
same,LRF ± 95% CL,"X-MuLV; dual treatment pH 4.05 + 0.15% Mega 10, mAb2 protein A eluate, 5 minutes",5.50±0.83
same,LRF ± 95% CL,"X-MuLV; dual treatment pH 4.05 + 0.15% Mega 10, mAb2 protein A eluate, 5 minutes, listed as Mega 10",5.50 ± 0.83
same,LRF ± 95% CL,"X-MuLV; dual treatment pH 4.05 + 0.15% Mega 10, mAb2 protein A eluate, 10 minutes",≥5.81 ± 0.18^
same,LRF ± 95% CL,"X-MuLV; dual treatment pH 4.05 + 0.15% Mega 10, mAb2 protein A eluate, 30 minutes",≥5.81 ± 0.18^
same,time to inactivate X-MuLV to the level below the detection limit,"X-MuLV; dual treatment: mAb1 protein A eluate pH 3.91 with 0.1% Mega-10, 16° C. (240 minutes by pH 3.91 alone at 18° C.)",2.5 min
same,time needed for inactivating X-MuLV to the level below the detection limit,"X-MuLV; dual treatment: mAb2 protein A eluate pH 4.05 with 0.15% Mega-10, 16° C. (120 minutes by pH 4.0 alone at 18° C.)",10 min
